In ChEMBL document CHEMBL1130473, “Synthesis and in vitro antibacterial activities of novel conformationally restricted hygromycin a analogues” (1997):
In brackets after ≈: the same amount, converted by molar mass.

What was measured:
Type in all cases: functional
Pasteurella multocida = assay: Compound was tested for minimum inhibitory concentration against Pasteurella multocida
[1] = test system: Brachyspira hyodysenteriae; assay: Compound was tested for minimum inhibitory concentration against S. hyodysenteriae; 6.25-12.5
[2] = test system: Brachyspira hyodysenteriae; assay: Compound was tested for minimum inhibitory concentration against Serpulina hyodysenteriae

Row | SMILES | MIC (Pasteurella multocida) [µg/mL] | MIC [1] [µg/mL] | MIC [2] [µg/mL]
1 | CC/C=C1/COc2cc(/C=C(\C)C(=O)N[C@@H]3[C@H](O)[C@@H](O)[C@H]4OCO[C@H]4[C@@H]3O)ccc21 | 50 (≈ 120 µM) | – | –
2 | CCCc1coc2cc(/C=C(\C)C(=O)N[C@@H]3[C@H](O)[C@@H](O)[C@H]4OCO[C@H]4[C@@H]3O)ccc12 | 50 (≈ 120 µM) | – | –
3 | C=CCOc1cc2c(cc1O)C=C(C(=O)N[C@@H]1[C@H](O)[C@@H](O)[C@H]3OCO[C@H]3[C@@H]1O)CC2 | 12.5 (≈ 29.8 µM) | 6.25 (≈ 14.9 µM) | –
4 | C=CCOc1cc2ccc(C(=O)N[C@@H]3[C@H](O)[C@@H](O)[C@H]4OCO[C@H]4[C@@H]3O)cc2cc1O | 50 (≈ 120 µM) | – | 50 (≈ 120 µM)
5 | CC/C=C1\COc2cc(/C=C(\C)C(=O)N[C@@H]3[C@H](O)[C@@H](O)[C@H]4OCO[C@H]4[C@@H]3O)ccc21 | 50 (≈ 120 µM) | – | –
6 | C=CCOc1ccc2c(c1O)CCC(C(=O)N[C@@H]1[C@H](O)[C@@H](O)[C@H]3OCO[C@H]3[C@@H]1O)=C2 | > 200 | – | > 200
7 | C=CCOc1cc2c(cc1O)C=C(C(=O)N[C@@H]1[C@H](O)[C@@H](O)[C@H]3OCO[C@H]3[C@@H]1O)C2 | > 200 | – | > 200
8 | C=CCOc1cc2c(cc1O)C=C(C(=O)N[C@@H]1[C@H](O)[C@@H](O)[C@H]3OCO[C@H]3[C@@H]1O)CCC2 | 25 (≈ 57.7 µM) | – | 25 (≈ 57.7 µM)
9 | CCCC1COc2cc(/C=C(\C)C(=O)N[C@@H]3[C@H](O)[C@@H](O)[C@H]4OCO[C@H]4[C@@H]3O)ccc21 (some centres undefined) | 6.25 (≈ 14.9 µM) | – | –
